Source: patent US9388133B2, “Pyrrole sulfonamide derivative, preparation method for same, and medical application thereof” (Jiangsu Hansoh Pharmaceutical Co., Ltd., priority 2012, dated 2016)

What was measured:
[1] = system: gastric acid secretion of rats with pyloric ligation induced ulcer; assay: Inhibition of gastric acid secretion of rats with pyloric ligation induced ulcer, histamine-stimulated, 1 h after administration (Test Example 2); format: in vivo, rat; conditions: SD male rats, 2 mg/kg i.g., acid output within 3 h of histamine
Procedure: A rat gastric ulcer model, in which rat gastric acid secretion was promoted by pyloric ligation and histamine hydrochloride, was established in the following experiment, for evaluating the effect of the test compounds on inhibition of gastric acid secretion.
(§1) Sixteen 7-week-old Sprague-Dawley (SD) male rats with a weight of about 250 g were purchased form Sippr-BK (batch number: 2008001621913). The rats were fed by 4 rats/cage, 12/12 h light/dark cyclic regulation was performed, the temperature was constant at 23±1° C., the humidity was 50-60%, and the rats took food and water freely.
The compound of Example 1, which was prepared into a solution/suspension with 0.5% of sodium carboxymethylcellulose (CMC-Na).
(§2) The rats were fasted for about 4 h. 2 mg/kg of the compound of Example 1 or 0.5% of CMC-Na were administrated intragastrically (i. g.) to the rats, and then 1.2 g/kg of urethane was injected intraperitoneally within 1 h. […] After centrifugalizing at 4000 rpm for 5 min, the supernatant fluid was sucked up, and the volume of each sample was measured accurately. […]
(§3) Gastric acid titration: the mean value (mean±S.D.) was calculated in each group by Excel software, t test was performed on the total acid value of gastric acid from treatment groups and model group subjects/animals at each time point after drug administration to judge whether a significant difference existed or not. […]

H^+/K^+-ATPase = target: T1, H^+/K^+-ATPase (Sus scrofa, UniProt P19156); assay: H+/K+-ATPase enzyme activity inhibition (malachite green, microsomes of porcine gastric mucosa); format: biochemical; conditions: pH 6.5, 10 mmol/L KCl, 37° C. 30 min
T1 construct: Microsomes of porcine gastric mucosal (rich in H^+/K^+-ATPase) obtained by sucrose gradient centrifugation; from tissue; host or cells: porcine gastric mucosa microsomes (self-manufactured, sucrose/ficoll gradient centrifugation)
Procedure: The following in-vitro screening test was used for determining the inhibition effect of the compounds of the present invention on enzyme activity of H^+/K^+-ATPase.
1. microsomes of porcine gastric mucosa (rich in H^+/K^+-ATPase) (self-manufactured)
1. The compounds were prepared into appropriate concentrations of 10000, 1000, 100, 10, 1 and 0.1 nM with 100% DMSO;
2. Buffer solution 1: 50 mmol/L of HEPES-Tris, 5 mmol/L of magnesium chloride, pH of 6.5;
3. Buffer solution 2: 50 mmol/L of HEPES-Tris, 5 mmol/L of magnesium chloride, pH of 6.5, 10 mmol/L of potassium chloride, pH=6.5;
4. ATP: ATP was diluted with the buffer solution 1 to 2 mM;
5. Malachite green solution: 0.12% of malachite green was dissolved in 2.5 moles of a mixture of sulfuric acid, 7.5% ammonium molybdate and 11% Tween 20, the three components were mixed according to a ratio of 100:25:2 during the use.
6. Microsomes of porcine gastric mucosal (rich in H^+/K^+-ATPase) obtained by sucrose gradient centrifugation: a porcine stomach was washed with running water, and immersed into 3 mol/L of concentrated brine for 1-2 min, and then wiped dry; the gastric mucosas were separated, minced, then suspended in a solution of 0.25 mol/L of sucrose, 1 mmol/L of EDTA, and 10 mmol/L of Tris-HCl; homogenization treatment was performed (the ratio was 100 g:330 mL, and 300 mL was further added after the completion of full homogenization), and the resulting homogenate was centrifugalized at 20000G for 30 min to remove the precipitate; the supernatant fluid was taken and centrifugalized at 100000G for 90 min; the precipitate was taken and suspended in 0.25 mol/L of sucrose solution, 0.25 mol/L of sucrose, 7.5% of ficoll were added at the bottom and centrifugalized at 100000G for 5 h. The substances between two liquid surface layers were collected, and then washed with 0.25 mol/L of sucrose solution while being shaken, and the resulting microsomal enzymes were kept at −80° C. for preservation and later use.
10 μL of microsomes of gastric mucosa (H^+/K^+-ATPase) were added to 79 μL of the buffer solution 2, followed by addition of 1 μL of the compound solutions with various concentrations, and then 10 μL of 2 mM ATP were added to start the reaction. It was reacted at 37° C. for 30 min. 30 μL of malachite green solution was added to terminate the reaction, and the reaction solution was kept at room temperature for 20 min, and then an OD value was read at 620 nm on a Victor3 microplate reader, and the inhibition rates of the compounds at various concentrations against H^+/K^+-ATPase were calculated.
Simultaneously, the reaction without addition of potassium chloride was taken as a background, which was subtracted when enzyme activity was calculated.
IC50 values can be calculated from the inhibition rates of the test compounds at various concentrations.

[2] = system: gastric acid secretion of rats with pyloric ligation induced ulcer; assay: Inhibition of gastric acid secretion of rats with pyloric ligation induced ulcer, histamine-stimulated, 24 h after administration (Test Example 3); format: in vivo, rat; conditions: SD male rats, acid output within 3 h of histamine
Procedure: A rat gastric ulcer model, in which rat gastric acid secretion was promoted by pyloric ligation and histamine hydrochloride, was established in the following experiment, for evaluating the effect of the test compounds on inhibition of the gastric acid secretion.
as §1, with “Twenty-four (24)” for “Sixteen”, “SD” for “Sprague-Dawley (SD)”
The compound of Example 1 was prepared into a solution/suspension with 0.5% of CMC-Na.
as §2, with “about 24 h.” for “about”, “4 mg/kg and 8” for “4 h. 2”, “(i. g)” for “(i. g.)”, “within 24” for “within 1”, “for 10” for “for 5”
as §3

T1 sequence (P19156 2-1034 limits assumed): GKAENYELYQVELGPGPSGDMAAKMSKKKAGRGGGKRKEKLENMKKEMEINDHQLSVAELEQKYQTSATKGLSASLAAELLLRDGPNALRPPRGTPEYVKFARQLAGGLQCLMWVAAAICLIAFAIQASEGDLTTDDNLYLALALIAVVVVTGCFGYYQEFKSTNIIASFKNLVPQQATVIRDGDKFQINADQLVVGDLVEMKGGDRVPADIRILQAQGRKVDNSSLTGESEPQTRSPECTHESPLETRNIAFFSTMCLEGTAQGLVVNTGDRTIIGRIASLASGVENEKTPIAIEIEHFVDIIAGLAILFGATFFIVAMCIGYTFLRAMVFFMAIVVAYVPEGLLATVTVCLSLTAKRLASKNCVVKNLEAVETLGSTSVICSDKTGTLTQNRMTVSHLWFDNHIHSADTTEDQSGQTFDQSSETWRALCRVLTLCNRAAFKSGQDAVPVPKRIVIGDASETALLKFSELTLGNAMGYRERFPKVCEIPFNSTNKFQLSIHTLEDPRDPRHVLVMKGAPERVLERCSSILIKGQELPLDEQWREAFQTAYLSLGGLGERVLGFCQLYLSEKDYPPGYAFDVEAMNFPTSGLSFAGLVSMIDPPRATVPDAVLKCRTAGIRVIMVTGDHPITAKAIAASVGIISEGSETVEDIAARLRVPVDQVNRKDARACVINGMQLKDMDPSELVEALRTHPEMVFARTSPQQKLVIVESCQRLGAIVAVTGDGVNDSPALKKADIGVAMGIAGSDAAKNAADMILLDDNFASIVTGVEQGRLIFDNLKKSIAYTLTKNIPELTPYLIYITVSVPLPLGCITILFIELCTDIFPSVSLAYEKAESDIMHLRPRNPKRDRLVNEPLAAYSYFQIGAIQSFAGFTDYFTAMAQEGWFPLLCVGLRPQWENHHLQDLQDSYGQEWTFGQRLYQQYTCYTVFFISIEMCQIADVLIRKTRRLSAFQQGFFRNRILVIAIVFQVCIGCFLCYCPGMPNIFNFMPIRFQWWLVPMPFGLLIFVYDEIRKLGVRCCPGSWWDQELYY
T1 sequence (P18434 whole entry partner): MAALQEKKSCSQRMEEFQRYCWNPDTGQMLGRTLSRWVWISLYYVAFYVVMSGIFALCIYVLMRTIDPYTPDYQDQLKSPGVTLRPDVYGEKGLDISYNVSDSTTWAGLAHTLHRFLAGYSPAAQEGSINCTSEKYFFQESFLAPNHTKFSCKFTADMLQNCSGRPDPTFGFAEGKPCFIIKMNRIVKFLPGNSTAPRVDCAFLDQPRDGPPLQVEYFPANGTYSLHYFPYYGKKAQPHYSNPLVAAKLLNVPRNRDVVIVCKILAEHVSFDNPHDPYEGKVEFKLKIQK

CNCc1cc(-c2ccccc2F)n(S(=O)(=O)c2cccc(OCC(=O)NC)c2)c1 [Example 1, 2-(3-((2-(2-fluorophenyl)-4-((methylamino)methyl)-1H-pyrrol-1-yl)sulfonyl)phenoxy)-N-methylacetamide]
acid inhibition rate at 1 h [1]: 89.3% | IC50 (H^+/K^+-ATPase): 21 nM | acid inhibition rate at 24 h ([2]; 4 mg/kg i.g.): 89.6% | acid inhibition rate at 24 h ([2]; 8 mg/kg i.g.): 99.4%

CNCc1cc(-c2ccccc2F)n(S(=O)(=O)c2ccc(OCC(=O)NC)cc2)c1 [Example 4, 2-(4-((2-(2-fluorophenyl)-4-((methylamino)methyl)-1H-pyrrol-1-yl)sulfonyl)phenoxy)-N-methylacetamide]
IC50 (H^+/K^+-ATPase): 63 nM

CNCc1cc(-c2ccccc2F)n(S(=O)(=O)c2cccc(OCC3(C(=O)NC)CC3)c2)c1 [Example 5, 1-((3-((2-(2-fluorophenyl)-4-((methylamino)methyl)-1H-pyrrol-1-yl)sulfonyl)phenoxy)methyl)-N-methylcyclopropylcarboxamide]
IC50 (H^+/K^+-ATPase): 81 nM

CNCc1cc(-c2ccccc2F)n(S(=O)(=O)c2ccc(OCC3(C(=O)NC)CC3)cc2)c1 [Example 6, 1-((4-((2-(2-fluorophenyl)-4-((methylamino)methyl)-1H-pyrrol-1-yl)sulfonyl)phenoxy)methyl)-N-methylcyclopropylcarboxamide]
IC50 (H^+/K^+-ATPase): 106 nM

CNCc1cc(C2=CCCCC2)n(S(=O)(=O)c2cccc(OCC(=O)NC3CC3)c2)c1 [Example 7, 2-(3-((2-(cyclohex-1-en-1-yl)-4-((methylamino)methyl)-1H-pyrrol-1-yl)sulfonyl)phenoxy)-N-cyclopropylacetamide]
IC50 (H^+/K^+-ATPase): 95 nM

CNCc1cc(-c2ccccc2F)n(S(=O)(=O)c2cccc(OCC(=O)NCCO)c2)c1 [Example 10, 2-(3-((2-(2-fluorophenyl)-4-((methylamino)methyl)-1H-pyrrol-1-yl)sulfonyl)phenoxy)-N-(2-hydroxyethyl)acetamide]
IC50 (H^+/K^+-ATPase): 49 nM

CNCc1cc(-c2ccccc2F)n(S(=O)(=O)c2cccc(OCC(=O)NCCCO)c2)c1 [Example 11]
IC50 (H^+/K^+-ATPase): 61 nM
